Source: patent publication US20150359668A1, “LIGHT DELIVERY DEVICE AND RELATED COMPOSITIONS, METHODS AND SYSTEMS” (CALIFORNIA INSTITUTE OF TECHNOLOGY, priority 2011, published 2015)

Columns and labels:
[1] = reaction with singlet oxygen; cited from earlier work
[2] = physiological pH; cited from earlier work
[3] = tested on: keratocytes; conditions: human, in vivo; cited from earlier work
[4] = tested on: cornea; experiment: drug diffusion into the cornea of intact eyes (extraction assay, diffusion model fit)
Protocol: Siena for Medical Science supplied porcine eyes from 3-4 month old swine. Eyes were stored in ocular balanced saline solution on ice until use within 48 hours post mortem. […] The epithelial cell layer was removed by scraping with a scalpel. […] The drug solution containing the eye was gently agitated using a rocker for a specified “drug contact time” (tc,cornea ranging from 0 to 4 hours). After the drug contact time, the eye was removed from the drug solution, and excess solution on the cornea was dabbed away with a Kimwipe. The eye was dissected using a scalpel blade and a pair of scissors to cut around the corneoscleral limbus to separate out the cornea. The tissue section was placed onto a trephine punch to cut out a 9.5-mm diameter corneal cross-section.
(§1) Quantitative assay of the amount of drug delivered—Experiments were performed for five drug contact times (four samples each): for the cornea, tc,cornea=0.25, 0.5, 1, 2, and 4 hrs, and for the sclera, tc,sclera=0.5, 2, 4, 7.5, and 120 hrs. Each experiment was repeated four times. For each experiment, the 9.5-mm diameter tissue cross-section obtained as described above was placed into a 50 mL centrifuge tube and immersed in 50 mL of extractant (doubled-distilled water for cornea or DPBS for sclera) then placed on a rocker to extract the drug molecules (FIG. 40). […] After a first extraction time te,1 of 8 hours, the tissue specimen was then transferred into another 50 mL of fresh extractant and the extract was retained for analysis.
(§2) The concentration of the drug in the extract was determined using fluorimetry. […] The fluorescence of each extract was measured and concentration was determined based on calibration curves prepared for each compound using a series of solutions with known concentrations. The extraction process was repeated using successively longer extraction times until there was no detectable fluorescence in the supernatant.
(§3) Porcine eyes closely resemble a sphere with diameter ˜25 mm. The cornea and sclera are the targeted tissues and both have thicknesses that are on the order of 1 mm. Since these tissue thicknesses are less than a tenth of the diameter of the eye, they are modeled as semi-infinite slabs. Each tissue is approximated as a uniform material. Fick's diffusion equation is given by
(§4) where C(z,t) is the drug concentration inside the tissue, t is the time since the exterior surface of the tissue was placed in contact with the drug solution, z is the distance into the tissue from its exterior surface, and D is the diffusion coefficient. […] For short contact times, the concentration falls to zero before the profile reaches the endothelium. For longer contact times, the boundary condition that the concentration falls to zero far into the system is still used as a first approximation (neglecting the change in material properties at the endothelium and neglects different transport processes in the aqueous or vitreous).
(§5) where area represents the cross-sectional area of the tissue sample and L is the thickness of the tissue sample. At long drug contact time, the predicted concentration changes very slowly and approaches a value governed by the partition coefficient.
(§6) with i being the individual data point and N being the total data points used for the fit. Data fitting was performed by writing a program in MATLAB software.

[5] = tested on: cornea; conditions: sodium azide added to the riboflavin treatment solution; cited from earlier work
[6] = tested on: posterior globe; conditions: rabbit, in vivo; cited from earlier work
[7] = tested on: collagen gel; experiment: collagen gel photorheology: storage modulus during photo-activated cross-linking; conditions: for cross-linking rate as % of the rate without singlet oxygen quenchers: in air
[8] = tested on: sclera; experiment: drug diffusion into the sclera of intact eyes (extraction assay, diffusion model fit)
Description: Orbital tissues were removed with scissors to expose the sclera. […] After the contact time, the eye was removed from the drug solution, and excess solution on the sclera was dabbed away with a Kimwipe. The eye was dissected using a scalpel blade and a pair of scissors to obtain a posterior scleral section on the temporal side near the optic nerve. The tissue section was placed onto a trephine punch to cut out a 9.5-mm diameter cross-section.
as §1, §2, §3, §4, §5, §6

[9] = tested on: sclera; conditions: cited from earlier work
[10] = tested on: sclera; conditions: subconjunctival delivery; cited from earlier work
[11] = tested on: cornea; conditions: fluorescein value used for riboflavin in earlier studies; cited from earlier work
[12] = 0.02% eosin Y or 0.1% riboflavin, 0 mW/cm^2

N[C@@H](Cc1c[nH]c2ccccc12)C(=O)O [Tryptophan]
k1O2 × 10^−7 M^−1s^−1 [1]: 1.3-3 × 10^−7 M^−1s^−1

N[C@@H](Cc1c[nH]cn1)C(=O)O [Histidine]
k1O2 × 10^−7 M^−1s^−1 [1]: 3.2-3.4 × 10^−7 M^−1s^−1

N[C@@H](Cc1ccc(O)cc1)C(=O)O [Tyrosine]
k1O2 × 10^−7 M^−1s^−1 [1]: 0.8 × 10^−7 M^−1s^−1

riboflavin-5′-monophosphate [reference compound]
ionization in solution [2]: negatively ionized
anterior stromal depth in which almost all keratocytes undergo apoptosis [3]: 300-350 μm
time to full recovery of the keratocyte population [3]: 6-12 months
diffusion coefficient without the binding effect, Dab [4]: 134 μm^2/s
drug contact time at which delivered amount levels off [4]: 2 h
drug in second extract, % of the first extract [4]: 1.6-2.5%
decrease of cross-linking efficacy (destructive tension of corneal strips) [5]: 76%
side-effects in the posterior globe [6]: almost complete loss of the photoreceptors, the outer nuclear layer and the retinal pigment epithelium (RPE)
cross-linking rate as % of the rate without singlet oxygen quenchers ([7]; 10 mM sodium azide): 12±20%
modulus change during the last 10 minutes, no irradiation [7, 12]: 32±36 Pa
ΔG′ over the 30-minute period without irradiation [7, 12]: 72±136 Pa
modulus change during the 10 minutes after cessation of irradiation ([7]; 0.02% eosin Y, 6 mW/cm^2, 0.1% riboflavin, 3 mW/cm^2): 70±19 Pa
change of storage modulus ΔG′ over the 30-minute irradiation ([7]; 0.02% eosin Y, 6 mW/cm^2 at 530±15 nm, 0.1% riboflavin, 3 mW/cm^2 at 370±12 nm): 819±85 Pa
cross-linking rate as % of the rate without singlet oxygen quenchers ([7]; 20 mM ascorbic acid): −32±11%
cross-linking rate as % of the rate without singlet oxygen quenchers ([7]; 100 mM sodium azide): −26±23%
cross-linking rate as % of the optimal rate (0.05% riboflavin) ([7]; 0.12% riboflavin concentration, by interpolation): approximately 78%
cross-linking in the absence of oxygen ([7]; in argon): no cross-linking occurred
rate of change in storage modulus, Ġ′ (decreased by) ([7]; in the absence of oxygen (in argon), 30-minute irradiation): 4.8±2.3 Pa/min
rate of change in storage modulus, Ġ′ (increased by) ([7]; in the presence of oxygen (in air), 30-minute irradiation, 0.05% riboflavin 370 nm or 0.02% eosin Y 530 nm): 28.0±4.7 Pa/min
diffusion coefficient without the binding effect, Dab [8]: 41 μm^2/s
drug in 3rd extract relative to the first extract [8]: 1-3%
drug in 4th extract relative to the first extract [8]: ≤ 1%
drug in second extract, % of the first extract [8]: 3-6%
time for the concentration to level off [8]: approximately 7.5 hours

sulforhodamine
partition coefficient in the sclera [9]: 13.6

CO[C@@]12[C@H](COC(N)=O)C3=C(C(=O)C(C)=C(N)C3=O)N1C[C@@H]1N[C@@H]12 [mitomycin-C]
fraction of drug present on the surface of sponges able to diffuse into the sclera [10]: ~5%

N[C@@H](CS)C(=O)O [Cystei e, Cysteine]
k1O2 × 10^−7 M^−1s^−1 [1]: 0.89 × 10^−7 M^−1s^−1

O=C1OC2(c3ccc(O)cc3Oc3cc(O)ccc32)c2ccccc21 [fluorescein]
diffusion coefficient, D [11]: 65 μm^2/s

CSCC[C@H](N)C(=O)O [Methionine]
k1O2 × 10^−7 M^−1s^−1 [1]: 1.6 × 10^−7 M^−1s^−1
